Test results as given in US20250281480A1, “PHARMACEUTICAL DRY POWDER INHALATION FORMULATION” (Bayer Aktiengesellschaft, priority 2021, published 2025).

Tests used:
cGMP = assay: Phase I, healthy male subjects, inhaled once daily for 14 days: cGMP; assay type: in vivo, human; settings: for cGMP changes from baseline: 1000 μg inhaled once daily for 14 days, n = 17; for cGMP concntration over time (mean +/− standard deviation): 1000 μg inhaled once daily, 14 days
Procedure: Healthy white male subjects, aged 18 to 45 years and with a body mass index (BMI) above/equal 18.5 and below/equal 29.9 kg/m2 were treated in a clinical pharmacological phase I study for 14 days with inhaled once daily doses of 1000 μg (nominal dose) or Placebo of dry powder of example 4. […] Drug activity/target engagement in healthy men was controlled in the healthy subjects by analysing blood samples for cGMP.

[1] = Storage stability of pseudopolymorphic forms (XRPD); assay type: physicochemical; settings: same storage conditions as table 15

`O=C(O)c1ccc(CCN(CCc2ccccc2OCc2ccc(-c3ccc(C(F)(F)F)cc3)cc2Cl)[C@H]2CCCc3nc(C(=O)O)ccc32)cc1` [Example 4, (5S)—{[2-(4-Carboxyphenyl)ethyl][2-(2-{[3-chloro-4′-(trifluoromethyl)biphenyl-4-yl]methoxy}phenyl)-ethyl]amino}-5,6,7,8-tetrahydroquinoline-2-carboxylic Acid as Monohydrate I] showed a cGMP changes from baseline (cGMP; 0 D 02 H 00 M) of 4840 pmol/L, a cGMP changes from baseline (cGMP; 0 D 04 H 00 M) of 7290 pmol/L and a cGMP changes from baseline (cGMP; 0 D 06 H 00 M) of 9950 pmol/L. For the same compound, the cGMP changes from baseline (cGMP; 0 D 08 H 00 M) was 10600 pmol/L, the cGMP changes from baseline (cGMP; 0 D 12 H 00 M) was 7530 pmol/L and the cGMP changes from baseline (cGMP; 0 D 15 H 00 M) was 6740 pmol/L. It also gave a cGMP changes from baseline (cGMP; 1 D 00 H 00 M) of 2980 pmol/L, a cGMP changes from baseline (cGMP; 2 D 00 H 00 M) of 4550 pmol/L and a cGMP changes from baseline (cGMP; 2 D 03 H 00 M) of 13000 pmol/L. The cGMP changes from baseline (cGMP; 2 D 08 H 00 M) was 16400 pmol/L, the cGMP changes from baseline (cGMP; 2 D 12 H 00 M) was 12600 pmol/L and the cGMP changes from baseline (cGMP; 3 D 00 H 00 M (trough prior inhalation)) was 5160 pmol/L. For the same compound, the cGMP changes from baseline (cGMP; 4 D 00 H 00 M (trough prior inhalation)) was 6360 pmol/L, the cGMP changes from baseline (cGMP; 5 D 00 H 00 M (trough prior inhalation)) was 5920 pmol/L and the cGMP changes from baseline (cGMP; 6 D 00 H 00 M) was 5090 pmol/L. It also gave a cGMP changes from baseline (cGMP; 6 D 03 H 00 M) of 13400 pmol/L, a cGMP changes from baseline (cGMP; 6 D 08 H 00 M) of 20100 pmol/L and a cGMP changes from baseline (cGMP; 6 D 12 H 00 M) of 13900 pmol/L. It also gave a cGMP changes from baseline (cGMP; 7 D 00 H 00 M (trough prior inhalation)) of 6180 pmol/L, a cGMP changes from baseline (cGMP; 8 D 00 H 00 M (trough prior inhalation)) of 6200 pmol/L and a cGMP changes from baseline (cGMP; 9 D 00 H 00 M (trough prior inhalation)) of 6580 pmol/L. It also gave a cGMP changes from baseline (cGMP; 10 D 00 H 00 M) of 6450 pmol/L, a cGMP changes from baseline (cGMP; 10 D 03 H 00 M) of 12700 pmol/L and a cGMP changes from baseline (cGMP; 10 D 08 H 00 M) of 17500 pmol/L. The cGMP changes from baseline (cGMP; 10 D 12 H 00 M) was 13000 pmol/L, the cGMP changes from baseline (cGMP; 11 D 00 H 00 M (trough prior inhalation)) was 6940 pmol/L and the cGMP changes from baseline (cGMP; 12 D 00 H 00 M (trough prior inhalation)) was 8060 pmol/L. For the same compound, the cGMP changes from baseline (cGMP; 12 D 22 H 00 M) was 6950 pmol/L, the cGMP changes from baseline (cGMP; 13 D 02 H 00 M (after last inhalation)) was 9120 pmol/L and the cGMP changes from baseline (cGMP; 13 D 04 H 00 M (after last inhalation)) was 12900 pmol/L. The cGMP changes from baseline (cGMP; 13 D 06 H 00 M (after last inhalation)) was 17000 pmol/L, the cGMP changes from baseline (cGMP; 13 D 08 H 00 M (after last inhalation)) was 17700 pmol/L and the cGMP changes from baseline (cGMP; 13 D 12 H 00 M (after last inhalation)) was 12900 pmol/L. It also gave a cGMP changes from baseline (cGMP; 13 D 15 H 00 M (after last inhalation)) of 12100 pmol/L, a cGMP changes from baseline (cGMP; 14 D 00 H 00 M (after last inhalation)) of 5410 pmol/L and a cGMP changes from baseline (cGMP; 15 D 00 H 00 M (after last inhalation)) of 2520 pmol/L. The cGMP changes from baseline (cGMP; 15 D 12 H 00 M (after last inhalation)) was 3040 pmol/L, the cGMP changes from baseline (cGMP; 16 D 00 H 00 M (after last inhalation)) was 2000 pmol/L and the cGMP changes from baseline (cGMP; 16 D 12 H 00 M (after last inhalation)) was 2410 pmol/L. The cGMP changes from baseline (cGMP; 17 D 00 H 00 M (after last inhalation)) was 400 pmol/L, the cGMP changes from baseline (cGMP; 20 D 00 H 00 M (after last inhalation)) was 1220 pmol/L and the cGMP changes from baseline (cGMP; FOLLOW-UP) was 1520 pmol/L. It also gave a cGMP changes from baseline (cGMP; −0 D 09 H 00 M (pretreatment day)) of 224 pmol/L, a cGMP changes from baseline (cGMP; −0 D 12 H 00 M (pretreatment day)) of 306 pmol/L and a cGMP changes from baseline (cGMP; −0 D 16 H 00 M (pretreatment day)) of 676 pmol/L. The “cGMP changes from baseline” value (cGMP; −0 D 18 H 00 M (pretreatment day)) was −252.9 +/− 1345.9, the “cGMP changes from baseline” value (cGMP; −0 D 20 H 00 M (pretreatment day)) was −952.9 +/− 1984.7 and the “cGMP changes from baseline” value (cGMP; −0 D 22 H 00 M (pretreatment day)) was −100.0 +/− 1403.1. It also gave a cGMP concntration over time (mean +/− standard deviation) (cGMP; 0 D 02 H 00 M) of 9170 pmol/L, a cGMP concntration over time (mean +/− standard deviation) (cGMP; 0 D 04 H 00 M) of 11600 pmol/L and a cGMP concntration over time (mean +/− standard deviation) (cGMP; 0 D 06 H 00 M) of 14300 pmol/L. It also gave a cGMP concntration over time (mean +/− standard deviation) (cGMP; 0 D 08 H 00 M) of 14900 pmol/L, a cGMP concntration over time (mean +/− standard deviation) (cGMP; 0 D 12 H 00 M) of 11800 pmol/L and a cGMP concntration over time (mean +/− standard deviation) (cGMP; 0 D 15 H 00 M) of 11100 pmol/L. For the same compound, the cGMP concntration over time (mean +/− standard deviation) (cGMP; 1 D 00 H 00 M) was 7310 pmol/L, the cGMP concntration over time (mean +/− standard deviation) (cGMP; 2 D 00 H 00 M) was 8880 pmol/L and the cGMP concntration over time (mean +/− standard deviation) (cGMP; 2 D 03 H 00 M) was 17300 pmol/L. It also gave a cGMP concntration over time (mean +/− standard deviation) (cGMP; 2 D 08 H 00 M) of 20800 pmol/L, a cGMP concntration over time (mean +/− standard deviation) (cGMP; 2 D 12 H 00 M) of 16900 pmol/L and a cGMP concntration over time (mean +/− standard deviation) (cGMP; 3 D 00 H 00 M) of 9490 pmol/L. It also gave a cGMP concntration over time (mean +/− standard deviation) (cGMP; 4 D 00 H 00 M) of 10700 pmol/L, a cGMP concntration over time (mean +/− standard deviation) (cGMP; 5 D 00 H 00 M) of 10300 pmol/L and a cGMP concntration over time (mean +/− standard deviation) (cGMP; 6 D 00 H 00 M) of 9420 pmol/L. It also gave a cGMP concntration over time (mean +/− standard deviation) (cGMP; 6 D 03 H 00 M) of 17700 pmol/L, a cGMP concntration over time (mean +/− standard deviation) (cGMP; 6 D 08 H 00 M) of 24500 pmol/L and a cGMP concntration over time (mean +/− standard deviation) (cGMP; 6 D 12 H 00 M) of 18200 pmol/L. The cGMP concntration over time (mean +/− standard deviation) (cGMP; 7 D 00 H 00 M) was 10500 pmol/L, the cGMP concntration over time (mean +/− standard deviation) (cGMP; 8 D 00 H 00 M) was 10500 pmol/L and the cGMP concntration over time (mean +/− standard deviation) (cGMP; 9 D 00 H 00 M) was 10900 pmol/L. It also gave a cGMP concntration over time (mean +/− standard deviation) (cGMP; 10 D 00 H 00 M) of 10800 pmol/L, a cGMP concntration over time (mean +/− standard deviation) (cGMP; 10 D 03 H 00 M) of 17100 pmol/L and a cGMP concntration over time (mean +/− standard deviation) (cGMP; 10 D 08 H 00 M) of 21900 pmol/L. For the same compound, the cGMP concntration over time (mean +/− standard deviation) (cGMP; 10 D 12 H 00 M) was 17300 pmol/L, the cGMP concntration over time (mean +/− standard deviation) (cGMP; 11 D 00 H 00 M) was 11300 pmol/L and the cGMP concntration over time (mean +/− standard deviation) (cGMP; 12 D 00 H 00 M) was 12400 pmol/L. For the same compound, the cGMP concntration over time (mean +/− standard deviation) (cGMP; 12 D 22 H 00 M) was 11300 pmol/L, the cGMP concntration over time (mean +/− standard deviation) (cGMP; 13 D 02 H 00 M) was 13400 pmol/L and the cGMP concntration over time (mean +/− standard deviation) (cGMP; 13 D 04 H 00 M) was 17300 pmol/L. The cGMP concntration over time (mean +/− standard deviation) (cGMP; 13 D 06 H 00 M) was 21400 pmol/L, the cGMP concntration over time (mean +/− standard deviation) (cGMP; 13 D 08 H 00 M) was 22000 pmol/L and the cGMP concntration over time (mean +/− standard deviation) (cGMP; 13 D 12 H 00 M) was 17200 pmol/L. The cGMP concntration over time (mean +/− standard deviation) (cGMP; 13 D 15 H 00 M) was 16400 pmol/L, the cGMP concntration over time (mean +/− standard deviation) (cGMP; 14 D 00 H 00 M) was 9740 pmol/L and the cGMP concntration over time (mean +/− standard deviation) (cGMP; 15 D 00 H 00 M) was 6850 pmol/L. The cGMP concntration over time (mean +/− standard deviation) (cGMP; 15 D 12 H 00 M) was 7370 pmol/L, the cGMP concntration over time (mean +/− standard deviation) (cGMP; 16 D 00 H 00 M) was 6330 pmol/L and the cGMP concntration over time (mean +/− standard deviation) (cGMP; 16 D 12 H 00 M) was 6740 pmol/L. It also gave a cGMP concntration over time (mean +/− standard deviation) (cGMP; 17 D 00 H 00 M) of 4730 pmol/L, a cGMP concntration over time (mean +/− standard deviation) (cGMP; 20 D 00 H 00 M) of 5520 pmol/L and a cGMP concntration over time (mean +/− standard deviation) (cGMP; FOLLOW-UP) of 5850 pmol/L. The cGMP concntration over time (mean +/− standard deviation) (cGMP; −0 D 02 H 00 M) was 4330 pmol/L, the cGMP concntration over time (mean +/− standard deviation) (cGMP; −0 D 09 H 00 M) was 5490 pmol/L and the cGMP concntration over time (mean +/− standard deviation) (cGMP; −0 D 12 H 00 M) was 5570 pmol/L. The cGMP concntration over time (mean +/− standard deviation) (cGMP; −0 D 16 H 00 M) was 5940 pmol/L, the cGMP concntration over time (mean +/− standard deviation) (cGMP; −0 D 18 H 00 M) was 5010 pmol/L and the cGMP concntration over time (mean +/− standard deviation) (cGMP; −0 D 20 H 00 M) was 4310 pmol/L. The cGMP concntration over time (mean +/− standard deviation) (cGMP; −0 D 22 H 00 M) was 5160 pmol/L, the cGMP concntration over time (mean +/− standard deviation) (cGMP; −1 D 02 H 00 M) was 5260 pmol/L and the “steady state of cGMP concentration reached after” value (cGMP; 1000 μg once daily inhalation) was no more than 11 days. The storage stability [1] was “stable”.
